In PubChem BioAssay (NCI) one finds GI50 and TGI data, which are given here for twelve compounds.

The structures appear in SMILES notation. “And” between values parts separate entries of the source, which are not always exact repeats. Identical values can stand only once.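 Five compound concentrations were applied to cells in 96-well plates for 48 hours; endpoints were derived by simple linear interpolation of the resulting dose-response curve. GI50 = concentration required for 50% inhibition of growth. TGI: total growth inhibition.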 Bounds are passed on as bounds.

The test system of one test is SK-MEL-2 melanoma. Briefly: NCI anticancer screen, dose series, 48 h.
As for `C=CCN(CC=C)C(=O)c1cc(C)nc2c1c(=O)n(-c1ccccc1)c(=O)n2CCCN1CCN(c2ccccc2OC)CC1`, the GI50 was > 50 µM and the TGI is > 50 µM.
Turning to `COCCOC1=C(Cl)C(=O)c2ccccc2C1=O`, the GI50 was 2.71 µM and the TGI stood at 9.35 µM.
Consider `CCN(CC)c1ccc2nc3ccc(=[N+](CC)CC)cc-3oc2c1`, for which the GI50 was 1.36 µM and the TGI stood at 3.99 µM.
Regarding `CCOC(=O)/C(=C\c1cccc(C)c1)C(C)=O`, the TGI came to 26.1 µM.
As to `COC12C(COC(=O)NCCO)C3=C(C(=O)C(C)=C(N)C3=O)N1CC1NC12` (stereo unspecified), the TGI was 79.9 µM and 75.5 µM.
For `Nc1nccc(-c2c(-c3ccc(F)cc3)nn3cc(C(F)(F)F)ccc23)n1`, the GI50 was > 25 µM and the TGI is > 25 µM.
With `C#Cc1ccc(-n2c(/C=C/c3ccc(O)cc3)nc3ncccc3c2=O)cc1`, the GI50 is 3.95 µM and the TGI is 40.7 µM.
For `N#CC(C#N)=C/C=C(\Sc1ccc(Cl)cc1)c1ccc(F)cc1`, in that order: 4.15 µM and > 63.6 µM.
For `CCSCC1CC(O)(c2ccccc2)C(c2ccccc2)C(c2ccc(F)cc2)O1` (stereo unspecified), in that order: 1.98 µM and 4 µM.
Regarding `CCO/C=C1\SC(=S)N(c2ccc(OCC)cc2)C1=O`, the TGI was > 100 µM.
Turning to `Nc1nc(=S)c2ncn(C3OC(COP(=O)(O)O)C(O)C3O)c2[nH]1` (stereo unspecified), the GI50 was 3.89 µM and the TGI was > 100 µM.
Taken in the same sequence, the figures for `O=C(Nc1ccc(OC(F)(F)Cl)cc1)c1cnc(N2CC[C@@H](O)C2)c(-c2ccn[nH]2)c1` were 12.9 µM and 29.5 µM.

The subject of a further test is NCI-H522 lung. Briefly: NCI anticancer screen, dose series, 48 h.
Take `C=CCN(CC=C)C(=O)c1cc(C)nc2c1c(=O)n(-c1ccccc1)c(=O)n2CCCN1CCN(c2ccccc2OC)CC1`: the GI50 was > 50 µM and the TGI is > 50 µM.
Consider `COCCOC1=C(Cl)C(=O)c2ccccc2C1=O`, for which the GI50 is 1.47 µM and the TGI is 2.9 µM.
Taken in the same sequence, the figures for `CCN(CC)c1ccc2nc3ccc(=[N+](CC)CC)cc-3oc2c1` were 0.0534 µM and 0.329 µM.
As for `CCOC(=O)/C(=C\c1cccc(C)c1)C(C)=O`, the TGI is 22.8 µM.
For `COC12C(COC(=O)NCCO)C3=C(C(=O)C(C)=C(N)C3=O)N1CC1NC12` (stereo unspecified), the GI50 was 36.1 µM; the TGI was 33.5 µM and 99.6 µM.
Regarding `Nc1nccc(-c2c(-c3ccc(F)cc3)nn3cc(C(F)(F)F)ccc23)n1`, the GI50 was > 25 µM and the TGI is > 25 µM.
Regarding `C#Cc1ccc(-n2c(/C=C/c3ccc(O)cc3)nc3ncccc3c2=O)cc1`, the GI50 was 2 µM and the TGI stood at 6.04 µM.
For `N#CC(C#N)=C/C=C(\Sc1ccc(Cl)cc1)c1ccc(F)cc1`, in that order: 2.8 µM and > 47.6 µM.
Taken in the same sequence, the figures for `CCSCC1CC(O)(c2ccccc2)C(c2ccccc2)C(c2ccc(F)cc2)O1` (stereo unspecified) were 1.57 µM and 4.84 µM.
Turning to `CCO/C=C1\SC(=S)N(c2ccc(OCC)cc2)C1=O`, the TGI was > 100 µM.
With `Nc1nc(=S)c2ncn(C3OC(COP(=O)(O)O)C(O)C3O)c2[nH]1` (stereo unspecified), the GI50 was 2.11 µM and the TGI was found to be 9.52 µM.
For `O=C(Nc1ccc(OC(F)(F)Cl)cc1)c1cnc(N2CC[C@@H](O)C2)c(-c2ccn[nH]2)c1`, in that order: 12.6 µM and 31.6 µM.

The next test has as its system NCI-H460 lung. Briefly: NCI anticancer screen, dose series, 48 h.
For `C=CCN(CC=C)C(=O)c1cc(C)nc2c1c(=O)n(-c1ccccc1)c(=O)n2CCCN1CCN(c2ccccc2OC)CC1`, the GI50 was > 50 µM and the TGI was > 50 µM.
For `COCCOC1=C(Cl)C(=O)c2ccccc2C1=O`, the GI50 was 3.34 µM and the TGI was 17.3 µM.
Taken in the same sequence, the figures for `CCN(CC)c1ccc2nc3ccc(=[N+](CC)CC)cc-3oc2c1` were 0.108 µM and 8.12 µM.
In turn, `CCOC(=O)/C(=C\c1cccc(C)c1)C(C)=O` registered a TGI of 51.6 µM.
On to `COC12C(COC(=O)NCCO)C3=C(C(=O)C(C)=C(N)C3=O)N1CC1NC12` (stereo unspecified), for which the TGI was 30.7 µM and 49.4 µM.
As to `Nc1nccc(-c2c(-c3ccc(F)cc3)nn3cc(C(F)(F)F)ccc23)n1`, the GI50 was > 25 µM and the TGI was > 25 µM.
Consider `C#Cc1ccc(-n2c(/C=C/c3ccc(O)cc3)nc3ncccc3c2=O)cc1`, for which the GI50 is 3.33 µM and the TGI is 14.1 µM.
Taken in the same sequence, the figures for `N#CC(C#N)=C/C=C(\Sc1ccc(Cl)cc1)c1ccc(F)cc1` were 2.31 µM and > 100 µM.
For the compound `CCSCC1CC(O)(c2ccccc2)C(c2ccccc2)C(c2ccc(F)cc2)O1` (stereo unspecified), the GI50 is 1.83 µM and the TGI stood at 4.01 µM.
For `CCO/C=C1\SC(=S)N(c2ccc(OCC)cc2)C1=O`, the TGI is > 100 µM.
Consider `Nc1nc(=S)c2ncn(C3OC(COP(=O)(O)O)C(O)C3O)c2[nH]1` (stereo unspecified), for which the GI50 is 0.562 µM and the TGI amounted to 10.9 µM.
For `O=C(Nc1ccc(OC(F)(F)Cl)cc1)c1cnc(N2CC[C@@H](O)C2)c(-c2ccn[nH]2)c1`, in that order: 10.1 µM and 25.4 µM.

The subject of a further test is HCC-2998 colon. Briefly: NCI anticancer screen, dose series, 48 h.
For the compound `C=CCN(CC=C)C(=O)c1cc(C)nc2c1c(=O)n(-c1ccccc1)c(=O)n2CCCN1CCN(c2ccccc2OC)CC1`, the GI50 was > 50 µM and the TGI was > 50 µM.
Take `COCCOC1=C(Cl)C(=O)c2ccccc2C1=O`: the GI50 is 4.23 µM and the TGI worked out at 15 µM.
For `CCN(CC)c1ccc2nc3ccc(=[N+](CC)CC)cc-3oc2c1`, in that order: 0.395 µM and 39.4 µM.
As for `CCOC(=O)/C(=C\c1cccc(C)c1)C(C)=O`, the TGI turned out to be 28.4 µM.
The same measure, in the same setting: with `COC12C(COC(=O)NCCO)C3=C(C(=O)C(C)=C(N)C3=O)N1CC1NC12` (stereo unspecified) the figure was 99.3 µM.
Consider `Nc1nccc(-c2c(-c3ccc(F)cc3)nn3cc(C(F)(F)F)ccc23)n1`, for which the GI50 is > 25 µM and the TGI was > 25 µM.
On to `C#Cc1ccc(-n2c(/C=C/c3ccc(O)cc3)nc3ncccc3c2=O)cc1`, for which the GI50 was 25.7 µM and the TGI was > 100 µM.
For `N#CC(C#N)=C/C=C(\Sc1ccc(Cl)cc1)c1ccc(F)cc1`, in that order: 2.87 µM and 6.17 µM.
Taken in the same sequence, the figures for `CCSCC1CC(O)(c2ccccc2)C(c2ccccc2)C(c2ccc(F)cc2)O1` (stereo unspecified) were 2.23 µM and 4.58 µM.
As to `CCO/C=C1\SC(=S)N(c2ccc(OCC)cc2)C1=O`, the TGI was > 100 µM.
Take `Nc1nc(=S)c2ncn(C3OC(COP(=O)(O)O)C(O)C3O)c2[nH]1` (stereo unspecified): the GI50 was 3.29 µM and the TGI was > 100 µM.
For `O=C(Nc1ccc(OC(F)(F)Cl)cc1)c1cnc(N2CC[C@@H](O)C2)c(-c2ccn[nH]2)c1`, in that order: 8.41 µM and 22.2 µM.

The next test deals with SW-620 colon. Briefly: NCI anticancer screen, dose series, 48 h.
Take `C=CCN(CC=C)C(=O)c1cc(C)nc2c1c(=O)n(-c1ccccc1)c(=O)n2CCCN1CCN(c2ccccc2OC)CC1`: the GI50 was > 50 µM and the TGI is > 50 µM.
As for `COCCOC1=C(Cl)C(=O)c2ccccc2C1=O`, the GI50 is 1.7 µM and the TGI came to 3.32 µM.
Taken in the same sequence, the figures for `CCN(CC)c1ccc2nc3ccc(=[N+](CC)CC)cc-3oc2c1` were 0.0449 µM and > 100 µM.
Turning to `CCOC(=O)/C(=C\c1cccc(C)c1)C(C)=O`, the TGI was found to be 27 µM.
For `COC12C(COC(=O)NCCO)C3=C(C(=O)C(C)=C(N)C3=O)N1CC1NC12` (stereo unspecified), the GI50 is 26.7 µM and the TGI came out at 110 µM.
Turning to `Nc1nccc(-c2c(-c3ccc(F)cc3)nn3cc(C(F)(F)F)ccc23)n1`, the GI50 was > 25 µM and the TGI was > 25 µM.
As for `C#Cc1ccc(-n2c(/C=C/c3ccc(O)cc3)nc3ncccc3c2=O)cc1`, the GI50 was 3.55 µM and the TGI was > 100 µM.
Take `N#CC(C#N)=C/C=C(\Sc1ccc(Cl)cc1)c1ccc(F)cc1`: the GI50 is 0.0532 µM.
On to `CCSCC1CC(O)(c2ccccc2)C(c2ccccc2)C(c2ccc(F)cc2)O1` (stereo unspecified), for which the GI50 is 1.81 µM and the TGI stood at 4.32 µM.
Take `CCO/C=C1\SC(=S)N(c2ccc(OCC)cc2)C1=O`: the TGI was > 100 µM.
With `Nc1nc(=S)c2ncn(C3OC(COP(=O)(O)O)C(O)C3O)c2[nH]1` (stereo unspecified), the GI50 is 3.59 µM and the TGI is > 100 µM.
On to `O=C(Nc1ccc(OC(F)(F)Cl)cc1)c1cnc(N2CC[C@@H](O)C2)c(-c2ccn[nH]2)c1`, for which the GI50 is 5.84 µM and the TGI amounted to 20.5 µM.
